Values joined by “and” are separate entries in the source; they are usually repeats but may differ in a detail not shown here. Equal entries are not always repeated.
Assays:
Assay in all cases: radiometric filter-binding kinase assay, Kinase HotSpot
Settings in all cases: compound 0.5 µM; ATP 10 µM
STK25 (human) = STK25 (human) (UniProt O00506)
PRKCG (human) = PRKCG (human) (UniProt P05129)
AKT2 (human) = AKT2 (human) (UniProt P31751)
FGFR4 (human) = FGFR4 (human) (UniProt P22455)
CDK5 CDK5R1 p35 (human) = CDK5 CDK5R1 p35 (human) (UniProt Q00535+Q15078)
GRK5 (human) = GRK5 (human) (UniProt P34947)
TTK (human) = TTK (human) (UniProt P33981)
MAPK14 (human) = MAPK14 (human) (UniProt Q16539)
NLK (human) = NLK (human) (UniProt Q9UBE8)
Chain of NLK (human) (Q9UBE8 whole entry, looked up): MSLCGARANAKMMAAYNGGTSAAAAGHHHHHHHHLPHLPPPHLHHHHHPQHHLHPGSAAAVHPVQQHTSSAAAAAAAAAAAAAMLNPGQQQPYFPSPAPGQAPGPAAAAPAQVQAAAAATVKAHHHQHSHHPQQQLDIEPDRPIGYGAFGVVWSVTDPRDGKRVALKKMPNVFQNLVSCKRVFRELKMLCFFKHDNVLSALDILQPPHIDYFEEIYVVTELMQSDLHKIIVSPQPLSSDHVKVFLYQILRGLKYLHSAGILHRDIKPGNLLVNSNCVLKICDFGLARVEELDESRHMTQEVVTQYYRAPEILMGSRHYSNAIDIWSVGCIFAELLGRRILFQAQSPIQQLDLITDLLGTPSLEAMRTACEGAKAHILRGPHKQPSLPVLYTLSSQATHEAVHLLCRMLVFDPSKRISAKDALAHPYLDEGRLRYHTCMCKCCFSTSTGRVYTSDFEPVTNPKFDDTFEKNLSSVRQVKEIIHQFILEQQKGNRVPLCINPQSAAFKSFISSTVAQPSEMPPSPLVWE

MELK (human) = MELK (human) (UniProt Q14680)
Chain of MELK (human) (Q14680 whole entry, looked up): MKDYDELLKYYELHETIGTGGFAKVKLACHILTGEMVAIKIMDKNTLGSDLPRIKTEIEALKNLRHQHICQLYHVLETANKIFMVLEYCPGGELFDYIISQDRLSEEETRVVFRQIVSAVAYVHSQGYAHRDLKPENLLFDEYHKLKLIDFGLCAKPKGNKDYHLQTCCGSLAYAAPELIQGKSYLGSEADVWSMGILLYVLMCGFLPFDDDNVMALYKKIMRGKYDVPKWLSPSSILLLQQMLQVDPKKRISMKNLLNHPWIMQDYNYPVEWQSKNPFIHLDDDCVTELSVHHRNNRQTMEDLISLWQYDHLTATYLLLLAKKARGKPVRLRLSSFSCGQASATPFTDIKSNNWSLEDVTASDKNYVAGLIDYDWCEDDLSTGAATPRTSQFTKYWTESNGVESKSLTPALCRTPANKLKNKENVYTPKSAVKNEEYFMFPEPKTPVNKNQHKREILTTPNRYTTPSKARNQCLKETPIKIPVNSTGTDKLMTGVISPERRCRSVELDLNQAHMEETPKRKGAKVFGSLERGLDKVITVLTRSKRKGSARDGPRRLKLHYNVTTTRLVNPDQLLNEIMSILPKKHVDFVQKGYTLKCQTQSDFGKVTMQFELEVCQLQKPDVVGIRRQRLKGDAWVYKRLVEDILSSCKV

STK33 (human) = STK33 (human) (UniProt Q9BYT3)
DMPK (human) = DMPK (human) (UniProt Q09013)
SRPK3 (human) = SRPK3 (human) (UniProt Q9UPE1)
EPHB4 (human) = EPHB4 (human) (UniProt P54760)
MATK (human) = MATK (human) (UniProt P42679)
Chain of MATK (human) (P42679 whole entry, looked up): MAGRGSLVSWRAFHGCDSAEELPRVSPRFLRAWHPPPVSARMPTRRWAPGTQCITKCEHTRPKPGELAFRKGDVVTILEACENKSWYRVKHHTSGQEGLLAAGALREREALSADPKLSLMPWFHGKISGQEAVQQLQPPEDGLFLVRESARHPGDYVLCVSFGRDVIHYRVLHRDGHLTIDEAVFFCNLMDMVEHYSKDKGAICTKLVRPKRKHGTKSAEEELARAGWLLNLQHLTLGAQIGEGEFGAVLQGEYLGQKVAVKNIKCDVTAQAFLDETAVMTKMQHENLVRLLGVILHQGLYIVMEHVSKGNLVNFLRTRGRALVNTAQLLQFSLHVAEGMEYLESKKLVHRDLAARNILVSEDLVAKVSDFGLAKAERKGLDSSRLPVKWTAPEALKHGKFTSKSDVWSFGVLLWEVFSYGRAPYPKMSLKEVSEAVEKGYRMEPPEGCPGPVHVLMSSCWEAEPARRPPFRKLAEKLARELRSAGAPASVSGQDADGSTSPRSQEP

INSR (human) = INSR (human) (UniProt P06213)
PAK2 (human) = PAK2 (human) (UniProt Q13177)
PLK3 (human) = PLK3 (human) (UniProt Q9H4B4)
Chain of PLK3 (human) (Q9H4B4 whole entry, looked up): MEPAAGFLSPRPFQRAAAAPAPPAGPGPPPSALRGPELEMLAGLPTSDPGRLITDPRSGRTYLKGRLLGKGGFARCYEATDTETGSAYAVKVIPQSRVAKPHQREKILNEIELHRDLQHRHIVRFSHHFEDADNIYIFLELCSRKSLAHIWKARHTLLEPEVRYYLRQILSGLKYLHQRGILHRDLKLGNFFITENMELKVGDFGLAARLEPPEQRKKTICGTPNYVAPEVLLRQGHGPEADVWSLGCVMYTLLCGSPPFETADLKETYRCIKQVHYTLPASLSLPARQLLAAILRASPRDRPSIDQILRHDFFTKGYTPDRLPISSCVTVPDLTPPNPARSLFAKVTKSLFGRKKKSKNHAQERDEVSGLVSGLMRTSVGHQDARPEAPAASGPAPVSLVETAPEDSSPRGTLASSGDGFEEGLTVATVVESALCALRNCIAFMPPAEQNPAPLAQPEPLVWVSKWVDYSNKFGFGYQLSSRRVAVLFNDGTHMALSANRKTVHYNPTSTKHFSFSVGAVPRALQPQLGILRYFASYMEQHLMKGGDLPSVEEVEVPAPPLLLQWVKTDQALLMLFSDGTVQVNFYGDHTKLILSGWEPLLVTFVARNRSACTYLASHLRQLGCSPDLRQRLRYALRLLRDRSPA

CDK6 CCND1 (human) = CDK6 CCND1 (human) (UniProt Q00534+P24385)
Chain of CDK6 CCND1 (human) (P24385 whole entry, looked up): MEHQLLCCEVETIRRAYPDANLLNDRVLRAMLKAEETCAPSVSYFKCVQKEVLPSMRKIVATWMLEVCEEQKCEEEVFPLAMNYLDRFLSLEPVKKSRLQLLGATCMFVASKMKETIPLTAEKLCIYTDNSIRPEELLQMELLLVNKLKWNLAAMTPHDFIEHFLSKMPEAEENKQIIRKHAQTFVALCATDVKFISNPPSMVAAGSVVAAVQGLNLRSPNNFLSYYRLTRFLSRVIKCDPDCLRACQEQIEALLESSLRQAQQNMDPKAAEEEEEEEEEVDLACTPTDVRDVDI
Chain of CDK6 CCND1 (human) (Q00534 whole entry, looked up): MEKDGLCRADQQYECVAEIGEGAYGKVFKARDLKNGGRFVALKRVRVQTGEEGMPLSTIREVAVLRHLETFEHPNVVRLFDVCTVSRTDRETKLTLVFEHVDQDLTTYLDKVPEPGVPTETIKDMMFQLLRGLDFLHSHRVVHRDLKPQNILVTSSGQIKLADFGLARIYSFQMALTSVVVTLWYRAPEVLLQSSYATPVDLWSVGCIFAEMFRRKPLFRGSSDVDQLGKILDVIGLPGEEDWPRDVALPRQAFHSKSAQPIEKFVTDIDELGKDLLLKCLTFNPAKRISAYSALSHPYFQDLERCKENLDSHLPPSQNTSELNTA

SLK (human) = SLK (human) (UniProt Q9H2G2)
CDK9 CCNT1 (human) = CDK9 CCNT1 (human) (UniProt P50750+O60563)
EPHA8 (human) = EPHA8 (human) (UniProt P29322)
PRKACA (human) = PRKACA (human) (UniProt P17612)
MYLK (human) = MYLK (human) (UniProt Q15746)
CAMK2G (human) = CAMK2G (human) (UniProt Q13555)
GSK3A (human) = GSK3A (human) (UniProt P49840)
EPHA7 (human) = EPHA7 (human) (UniProt Q15375)
Chain of EPHA7 (human) (Q15375 whole entry, looked up): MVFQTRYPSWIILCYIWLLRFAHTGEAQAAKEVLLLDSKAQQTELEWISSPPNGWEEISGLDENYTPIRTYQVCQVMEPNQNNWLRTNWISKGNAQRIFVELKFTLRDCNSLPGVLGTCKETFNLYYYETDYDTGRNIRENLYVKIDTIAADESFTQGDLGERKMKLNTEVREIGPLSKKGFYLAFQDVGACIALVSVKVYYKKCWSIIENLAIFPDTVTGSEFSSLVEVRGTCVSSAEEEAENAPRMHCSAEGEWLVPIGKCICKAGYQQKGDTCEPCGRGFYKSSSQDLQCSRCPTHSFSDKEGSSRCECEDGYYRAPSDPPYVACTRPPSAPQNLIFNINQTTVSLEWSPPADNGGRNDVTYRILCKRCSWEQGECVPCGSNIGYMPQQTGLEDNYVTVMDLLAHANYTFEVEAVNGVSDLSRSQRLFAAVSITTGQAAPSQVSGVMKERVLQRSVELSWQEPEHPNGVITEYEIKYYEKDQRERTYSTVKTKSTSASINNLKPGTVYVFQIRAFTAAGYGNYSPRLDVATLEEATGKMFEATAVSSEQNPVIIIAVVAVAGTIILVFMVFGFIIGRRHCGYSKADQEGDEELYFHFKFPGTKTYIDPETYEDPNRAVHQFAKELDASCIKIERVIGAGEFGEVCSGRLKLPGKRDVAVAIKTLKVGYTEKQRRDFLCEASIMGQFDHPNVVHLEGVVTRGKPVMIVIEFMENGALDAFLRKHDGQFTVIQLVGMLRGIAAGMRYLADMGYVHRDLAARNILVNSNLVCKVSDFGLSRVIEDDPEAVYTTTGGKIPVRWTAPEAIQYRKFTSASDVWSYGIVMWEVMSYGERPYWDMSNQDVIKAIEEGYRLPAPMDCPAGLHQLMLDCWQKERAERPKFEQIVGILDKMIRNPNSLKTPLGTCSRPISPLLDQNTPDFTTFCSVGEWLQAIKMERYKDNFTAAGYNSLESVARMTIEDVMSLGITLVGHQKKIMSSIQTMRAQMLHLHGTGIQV

TEC (human) = TEC (human) (UniProt P42680)
FGFR2 (human) = FGFR2 (human) (UniProt P21802)
DDR2 (human) = DDR2 (human) (UniProt Q16832)
MAPK13 (human) = MAPK13 (human) (UniProt O15264)
Chain of MAPK13 (human) (O15264 whole entry, looked up): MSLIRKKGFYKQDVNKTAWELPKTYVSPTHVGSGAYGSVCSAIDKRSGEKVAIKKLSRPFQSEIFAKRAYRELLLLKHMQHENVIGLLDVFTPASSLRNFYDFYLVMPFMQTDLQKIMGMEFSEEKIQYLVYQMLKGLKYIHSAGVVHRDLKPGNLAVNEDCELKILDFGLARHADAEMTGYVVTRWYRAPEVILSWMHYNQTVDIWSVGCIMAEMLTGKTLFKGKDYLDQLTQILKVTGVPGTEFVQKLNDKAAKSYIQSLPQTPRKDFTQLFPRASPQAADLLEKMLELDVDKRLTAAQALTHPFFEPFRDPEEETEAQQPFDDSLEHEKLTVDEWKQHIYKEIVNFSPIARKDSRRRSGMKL

SRC (human) = SRC (human) (UniProt P12931)
IRAK1 (human) = IRAK1 (human) (UniProt P51617)
HIPK3 (human) = HIPK3 (human) (UniProt Q9H422)
PAK7 (human) = PAK7 (human) (UniProt Q9P286)
SGK2 (human) = SGK2 (human) (UniProt Q9HBY8)
CSNK1G1 (human) = CSNK1G1 (human) (UniProt Q9HCP0)
BMX (human) = BMX (human) (UniProt P51813)
PLK2 (human) = PLK2 (human) (UniProt Q9NYY3)
Chain of PLK2 (human) (Q9NYY3 whole entry, looked up): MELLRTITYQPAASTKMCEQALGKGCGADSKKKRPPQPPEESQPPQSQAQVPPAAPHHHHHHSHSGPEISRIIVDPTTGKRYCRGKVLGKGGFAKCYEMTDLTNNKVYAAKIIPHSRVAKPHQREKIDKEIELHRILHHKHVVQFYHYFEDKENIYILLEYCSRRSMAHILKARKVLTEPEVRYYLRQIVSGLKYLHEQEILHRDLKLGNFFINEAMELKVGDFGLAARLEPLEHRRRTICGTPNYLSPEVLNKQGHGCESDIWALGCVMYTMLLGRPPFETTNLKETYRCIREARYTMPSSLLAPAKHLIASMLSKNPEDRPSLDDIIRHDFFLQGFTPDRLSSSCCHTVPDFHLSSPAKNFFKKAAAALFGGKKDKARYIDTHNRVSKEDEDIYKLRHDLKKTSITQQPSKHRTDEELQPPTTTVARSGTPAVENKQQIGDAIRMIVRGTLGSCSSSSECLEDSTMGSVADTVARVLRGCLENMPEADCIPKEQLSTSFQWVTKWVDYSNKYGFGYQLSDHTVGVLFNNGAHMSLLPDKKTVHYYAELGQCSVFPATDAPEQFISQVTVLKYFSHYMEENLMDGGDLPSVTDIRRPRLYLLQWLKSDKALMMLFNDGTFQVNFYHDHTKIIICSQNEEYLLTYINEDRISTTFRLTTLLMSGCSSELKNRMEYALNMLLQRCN

PRKG1 (human) = PRKG1 (human) (UniProt Q13976)
HIPK1 (human) = HIPK1 (human) (UniProt Q86Z02)
BLK (human) = BLK (human) (UniProt P51451)

Q: Which residual activity (STK25 (human)) does the source give for O=C1Cc2c([nH]c3ccc(Br)cc23)-c2ccccc2N1 here?
A: 98.8%

Q: And the residual activity (PRKCG (human))?
A: 93.8%

Q: What about the residual activity (AKT2 (human)) of the same compound?
A: 104%

Q: What about the residual activity (FGFR4 (human)) of the same compound?
A: 113%

Q: What about the residual activity (CDK5 CDK5R1 p35 (human)) of the same compound?
A: 70.8%

Q: And the residual activity (GRK5 (human))?
A: 97%

Q: And the residual activity (TTK (human))?
A: 80.9%

Q: And the residual activity (MAPK14 (human))?
A: 93%

Q: And the residual activity (NLK (human))?
A: 98.7%

Q: What about the residual activity (MELK (human)) of the same compound?
A: 74.8%

Q: What about the residual activity (STK33 (human)) of the same compound?
A: 103%

Q: What about the residual activity (DMPK (human)) of the same compound?
A: 110%

Q: What about the residual activity (SRPK3 (human)) of the same compound?
A: 100%

Q: And the residual activity (EPHB4 (human))?
A: 100%

Q: What about the residual activity (MATK (human)) of the same compound?
A: 93.6%

Q: What about the residual activity (INSR (human)) of the same compound?
A: 101%

Q: What about the residual activity (PAK2 (human)) of the same compound?
A: 95.5%

Q: And the residual activity (PLK3 (human))?
A: 96%

Q: And the residual activity (CDK6 CCND1 (human))?
A: 83.4%

Q: What about the residual activity (SLK (human)) of the same compound?
A: 95.7%

Q: And the residual activity (CDK9 CCNT1 (human))?
A: 31.3%

Q: What about the residual activity (EPHA8 (human)) of the same compound?
A: 101%

Q: And the residual activity (PRKACA (human))?
A: 102%

Q: What about the residual activity (MYLK (human)) of the same compound?
A: 96.3%

Q: And the residual activity (CAMK2G (human))?
A: 116%

Q: And the residual activity (GSK3A (human))?
A: 5.87%

Q: And the residual activity (EPHA7 (human))?
A: 101%

Q: And the residual activity (TEC (human))?
A: 96.4%

Q: What about the residual activity (FGFR2 (human)) of the same compound?
A: 100%

Q: And the residual activity (DDR2 (human))?
A: 98.4%

Q: And the residual activity (MAPK13 (human))?
A: 103%

Q: And the residual activity (SRC (human))?
A: 71.4%

Q: And the residual activity (IRAK1 (human))?
A: 98.6%

Q: What about the residual activity (HIPK3 (human)) of the same compound?
A: 109%

Q: What about the residual activity (PAK7 (human)) of the same compound?
A: 85.1%

Q: What about the residual activity (SGK2 (human)) of the same compound?
A: 98.9%

Q: What about the residual activity (CSNK1G1 (human)) of the same compound?
A: 102%

Q: And the residual activity (BMX (human))?
A: 99.6%

Q: What about the residual activity (PLK2 (human)) of the same compound?
A: 99.1%

Q: What about the residual activity (PRKG1 (human)) of the same compound?
A: 93% and 95.9%

Q: CCn1cnc2c(Nc3cccc(Cl)c3)nc(N[C@@H]3CCCC[C@@H]3N)nc21 was tested. Which residual activity (STK25 (human)) did it give?
A: 101%

Q: And the residual activity (PRKCG (human))?
A: 95%

Q: And the residual activity (AKT2 (human))?
A: 108%

Q: What about the residual activity (FGFR4 (human)) of the same compound?
A: 97.5%

Q: What about the residual activity (CDK5 CDK5R1 p35 (human)) of the same compound?
A: 13.2%

Q: What about the residual activity (GRK5 (human)) of the same compound?
A: 106%

Q: What about the residual activity (TTK (human)) of the same compound?
A: 99.7%

Q: What about the residual activity (MAPK14 (human)) of the same compound?
A: 100%

Q: What about the residual activity (NLK (human)) of the same compound?
A: 90.8%

Q: And the residual activity (MELK (human))?
A: 77%

Q: And the residual activity (STK33 (human))?
A: 88.9%

Q: What about the residual activity (DMPK (human)) of the same compound?
A: 99.7%

Q: What about the residual activity (SRPK3 (human)) of the same compound?
A: 94.9%

Q: What about the residual activity (EPHB4 (human)) of the same compound?
A: 70.8%

Q: What about the residual activity (MATK (human)) of the same compound?
A: 88.3%

Q: And the residual activity (INSR (human))?
A: 91.3%

Q: And the residual activity (PAK2 (human))?
A: 93.9%

Q: What about the residual activity (PLK3 (human)) of the same compound?
A: 90.1%

Q: And the residual activity (CDK6 CCND1 (human))?
A: 60.9%

Q: What about the residual activity (SLK (human)) of the same compound?
A: 71.4%

Q: What about the residual activity (CDK9 CCNT1 (human)) of the same compound?
A: 53.7%

Q: What about the residual activity (EPHA8 (human)) of the same compound?
A: 93%

Q: And the residual activity (PRKACA (human))?
A: 102%

Q: And the residual activity (MYLK (human))?
A: 91%

Q: And the residual activity (CAMK2G (human))?
A: 104%

Q: And the residual activity (GSK3A (human))?
A: 103%

Q: And the residual activity (EPHA7 (human))?
A: 87.6%

Q: And the residual activity (TEC (human))?
A: 123%

Q: And the residual activity (HIPK1 (human))?
A: 97.5%

Q: And the residual activity (DDR2 (human))?
A: 97.2%

Q: And the residual activity (MAPK13 (human))?
A: 102%

Q: And the residual activity (SRC (human))?
A: 54.7%

Q: What about the residual activity (IRAK1 (human)) of the same compound?
A: 81.7%

Q: What about the residual activity (HIPK3 (human)) of the same compound?
A: 102%

Q: What about the residual activity (PAK7 (human)) of the same compound?
A: 64.7%

Q: What about the residual activity (SGK2 (human)) of the same compound?
A: 98.2%

Q: What about the residual activity (CSNK1G1 (human)) of the same compound?
A: 56.8%

Q: What about the residual activity (BMX (human)) of the same compound?
A: 90.7%

Q: And the residual activity (PLK2 (human))?
A: 95.8%

Q: What about the residual activity (PRKG1 (human)) of the same compound?
A: 91.4% and 91.8%

Q: What about the residual activity (BLK (human)) of the same compound?
A: 87.1%

Q: Which results are given for Nc1nnc2[nH]c3ccccc3nc1-2?
A: residual activity (STK25 (human)): 99.9%; residual activity (PRKCG (human)): 97.3%; residual activity (AKT2 (human)): 90.1%; residual activity (FGFR4 (human)): 94.9%; residual activity (CDK5 CDK5R1 p35 (human)): 88.7%; residual activity (GRK5 (human)): 101%; residual activity (TTK (human)): 102%; residual activity (MAPK14 (human)): 96.6%; residual activity (NLK (human)): 95.2%; residual activity (MELK (human)): 92.9%; residual activity (STK33 (human)): 98.7%; residual activity (DMPK (human)): 98.4%; residual activity (SRPK3 (human)): 95.6%; residual activity (EPHB4 (human)): 84.9%; residual activity (MATK (human)): 91.9%; residual activity (INSR (human)): 95.3%; residual activity (PAK2 (human)): 104%; residual activity (PLK3 (human)): 96.3%; residual activity (CDK6 CCND1 (human)): 105%; residual activity (SLK (human)): 92.5%; residual activity (CDK9 CCNT1 (human)): 81.6%; residual activity (EPHA8 (human)): 104%; residual activity (PRKACA (human)): 102%; residual activity (MYLK (human)): 93.6%; residual activity (CAMK2G (human)): 108%; residual activity (GSK3A (human)): 91.6%; residual activity (EPHA7 (human)): 95.3%; residual activity (TEC (human)): 108%; residual activity (FGFR2 (human)): 98.1%; residual activity (DDR2 (human)): 94.6%; residual activity (MAPK13 (human)): 101%; residual activity (IRAK1 (human)): 88.9%; residual activity (HIPK3 (human)): 97.4%; residual activity (PAK7 (human)): 98.4%; residual activity (SGK2 (human)): 90.3%; residual activity (CSNK1G1 (human)): 99%; residual activity (BMX (human)): 99.5%; residual activity (PLK2 (human)): 101%; residual activity (PRKG1 (human)): 93% and 97.7%; residual activity (BLK (human)): 96.6%

Reference: the kinase profiling compilation of Christmann-Franck et al. (2016)
